≈ marks a conversion by molar mass, not a printed value.
Legend:
MAO-A = target: T1, MAO-A (Homo sapiens, UniProt P21397); test: MAO-A inhibition assay (recombinant enzyme, kynuramine substrate); type: biochemical; conditions: recombinant MAO-A, kynuramine 0.06 mM; for remaining activity at 10 µM: 10 µM compound, read-out: Residual Activity at 10 µM (%) MAO-A; for IC50: read-out: IC50 (µM) MAO-A
T1 construct: purchased Sigma-Aldrich
T1 sequence (P21397 1-527): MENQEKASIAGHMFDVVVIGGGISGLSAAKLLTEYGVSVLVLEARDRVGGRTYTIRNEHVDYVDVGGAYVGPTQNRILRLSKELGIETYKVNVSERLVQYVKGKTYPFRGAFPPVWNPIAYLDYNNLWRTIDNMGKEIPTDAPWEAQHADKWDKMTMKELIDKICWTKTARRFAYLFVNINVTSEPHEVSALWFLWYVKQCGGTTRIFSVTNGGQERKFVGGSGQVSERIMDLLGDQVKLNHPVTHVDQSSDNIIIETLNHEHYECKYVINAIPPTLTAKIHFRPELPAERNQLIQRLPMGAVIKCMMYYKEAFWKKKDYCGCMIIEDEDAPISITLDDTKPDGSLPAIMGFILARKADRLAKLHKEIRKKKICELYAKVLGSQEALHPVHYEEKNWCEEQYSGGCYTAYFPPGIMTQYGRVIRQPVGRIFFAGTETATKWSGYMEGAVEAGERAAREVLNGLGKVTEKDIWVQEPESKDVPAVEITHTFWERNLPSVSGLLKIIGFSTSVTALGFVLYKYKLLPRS
Description: (§1) Recombinant MAO-A and MAO-B were used to test the MAO inhibitory activity using the substrates kynuramine and benzylamine (0.06 mM and 0.3 mM, respectively). […] Chemicals were from Sigma-Aldrich.
(§2) MAO-A At 10 µM, compounds’ inhibitory effects on MAOs were initially recorded. […] The SI values of MAO-B were calculated by dividing the IC50 values for MAO-A and those for MAO-B. The MAO-B was used to study the kinetics of substances DM2 or DM18 at five different substrate concentrations. By using the LB plots and their secondary plots at three different inhibitor doses, the inhibition patterns were examined.

MAO-B [1] = target: T2, MAO-B (Homo sapiens, UniProt P27338); test: MAO-B kinetic study (Lineweaver-Burk and secondary plots); type: biochemical; conditions: for Inhibition pattern of MAO-B: Lineweaver-Burk plots, five substrate and three inhibitor concentrations; for Ki: secondary plots of LB slopes vs. inhibitor concentration
T2 construct: purchased Sigma-Aldrich
T2 sequence (P27338 1-520): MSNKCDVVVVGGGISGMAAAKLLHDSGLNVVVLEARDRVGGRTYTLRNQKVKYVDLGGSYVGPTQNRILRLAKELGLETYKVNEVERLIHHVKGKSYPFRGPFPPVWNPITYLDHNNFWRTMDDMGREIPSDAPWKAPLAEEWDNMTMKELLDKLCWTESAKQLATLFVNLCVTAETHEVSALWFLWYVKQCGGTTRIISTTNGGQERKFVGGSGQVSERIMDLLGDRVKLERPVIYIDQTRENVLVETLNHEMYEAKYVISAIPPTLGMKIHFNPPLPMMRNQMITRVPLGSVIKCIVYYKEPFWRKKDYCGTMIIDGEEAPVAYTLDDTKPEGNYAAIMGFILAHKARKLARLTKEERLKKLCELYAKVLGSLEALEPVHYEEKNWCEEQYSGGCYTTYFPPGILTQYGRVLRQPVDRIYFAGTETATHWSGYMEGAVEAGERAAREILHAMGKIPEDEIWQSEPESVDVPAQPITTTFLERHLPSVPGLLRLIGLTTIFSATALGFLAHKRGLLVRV
Description: as §2

MAO-B [2] = target: T2, MAO-B; test: Reversibility of MAO-B inhibition by dialysis; type: biochemical; conditions: for Reversibility of MAO-B inhibition: dialysis experiment; for Relative MAO-B activity, dialyzed (AD) / Relative MAO-B activity, undialyzed (AU): ~2 × IC50 (DM2 0.13, DM18 0.24, lazabemide 0.22, pargyline 0.28 µM), 30 min preincubation; for Relative MAO-B activity, dialyzed (AD): after dialysis
Description: To identify the reversibility patterns, the relative activities for samples dialyzed (AD) and for those undialyzed (AU) were compared.
By contrasting the recovery results of samples that had been dialyzed (AD) and undialyzed (AU), reversibility patterns were determined.

[3] = MTT cytotoxicity test on Vero cells; type: cell-based, African green monkey; conditions: African green monkey, Vero cells, MTT
Description: (§3) Vero cells were treated to various doses (10–500 µg/mL) for 48 h, and relative cell viability was determined by measuring the absorbance at 570 nm with an ELISA microplate.
(§4) Cytotoxicity study of the lead molecule DM2 was carried out as previously described and as in Supplementary Materials described shortly.
(§5) Text S1. Supplementary procedure for toxicity evaluation
(§6) The cell line of Vero (African green monkey kidney cells) was procured from NCCS (Pune, India) and was grown in liquid medium (DMEM) containing 100 ug/mL penicillin, 100 µg/mL streptomycin, and 10% Fetal Bovine Serum (FBS) and preserved under an atmosphere of 5% CO2 at […]
(§7) The DM2 was assayed for in vitro cytotoxicity by MTT assay using the cultured Vero cells.
(§8) Briefly, the cultured Vero cells were produced by cell dissociation with trypsin (trypsinization), collectively in a 15 mL tube. At a density of 1×10^5 cells/mL cells/well (200 µL), the cells were plated for 24-48 h at 37°C into 96-well tissue culture plate in DMEM medium containing 10 % FBS and 1% antibiotic solution. The wells were washed with sterile phosphate buffered saline (PBS) and further allowed to react with varying concentrations of the DM2 in a serum free DMEM medium. The samples were triplicated and the cells were kept for incubation at 37°C for 24 h in a humidified 5% CO2 incubator. MTT (20 µL of 5 mg/mL) was added into each well after the incubation and the cells were incubated for another 2-4 h. The end point was determined by the purple precipitation, which was clearly seen under an inverted microscope. At the end, the medium along with MTT (220 µL) were used for the aspiration of the wells and later washed with 1X PBS (200 µL). In order to dissolve formazan crystals, DMSO (100 µL) was added to the plate with shaking for 5 min. The absorbance at 570 nm was measured using a micro plate reader (Thermo Fisher Scientific, USA). The IC50 value and the percentage cell viability was calculated using GraphPad Prism 8.0 software (USA).

Vero cells = test: MTT cytotoxicity test on Vero cells; type: cell-based, African green monkey; conditions: 300 µg/mL, 48 h, phase contrast microscope
Description: as §3, §4, §5, §6, §7, §8

AChE = AChE (Electrophorus electricus, UniProt O42275); test: AChE inhibition (colorimetric, acetylthiocholine iodide); type: biochemical; conditions: read-out: Residual activity at 10 µM (%) AChE
Description: (§9) The AChE and BChE inhibitory activities were measured by continuous colorimetric determination method, in the presence of 0.5 mM acetylthiocholine iodide (ACTI) and butyrylthiocholine iodide […]
(§10) POP, K LAB, Daejeon, Korea). After adding the substrate, 0.5 mM 5,5-dithiobis (2-nitrobenzoic acid) (DTNB) was added as the color development solution. The BACE-1 inhibitory activity was evaluated by β-secretase (BACE1) activity detection kit (Sigma-Aldrich, St. Louis, Mo, USA) using a fluorescence spectrometer (FS-2, Scinco, Seoul, Korea).
64. […] A new and rapid colorimetric determination of acetylcholinesterase activity. Biochem. Pharmacol. 7, 88-95. […]

BChE = BChE (Equus caballus, UniProt P81908); test: biochemical; conditions: read-out: Residual activity at 10 µM (%) BChE
Description: as §9
as §10, with “Seoul, Korea). […]” for “Seoul, Korea).”

BACE-1 = target: T3, BACE-1 (Homo sapiens, UniProt P56817); test: BACE-1 inhibition (β-secretase activity detection kit); type: biochemical; conditions: 10 µM compound; read-out: Residual activity at 10 µM (%) BACE-1
T3 construct: purchased Sigma-Aldrich
Description: as §9
as §10, with “Seoul, Korea). […]” for “Seoul, Korea).”

MAO-B [4] = target: T2, MAO-B; test: MAO-B inhibition assay (recombinant enzyme, benzylamine substrate); type: biochemical
Description: as §1, §2

T3 sequence (P56817 46-501): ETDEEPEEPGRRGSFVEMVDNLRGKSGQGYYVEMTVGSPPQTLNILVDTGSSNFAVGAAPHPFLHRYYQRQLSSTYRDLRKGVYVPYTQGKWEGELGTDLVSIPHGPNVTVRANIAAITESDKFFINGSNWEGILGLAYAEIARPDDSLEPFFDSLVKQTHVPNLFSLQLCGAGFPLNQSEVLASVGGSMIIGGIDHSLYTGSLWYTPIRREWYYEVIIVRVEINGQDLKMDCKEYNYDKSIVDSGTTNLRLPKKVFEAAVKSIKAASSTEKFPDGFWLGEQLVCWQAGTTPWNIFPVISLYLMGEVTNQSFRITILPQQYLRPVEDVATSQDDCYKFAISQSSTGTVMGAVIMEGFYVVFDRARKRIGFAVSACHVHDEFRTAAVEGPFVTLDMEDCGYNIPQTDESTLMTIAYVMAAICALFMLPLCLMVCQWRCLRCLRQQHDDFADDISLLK
AChE, sequence (O42275 24-633): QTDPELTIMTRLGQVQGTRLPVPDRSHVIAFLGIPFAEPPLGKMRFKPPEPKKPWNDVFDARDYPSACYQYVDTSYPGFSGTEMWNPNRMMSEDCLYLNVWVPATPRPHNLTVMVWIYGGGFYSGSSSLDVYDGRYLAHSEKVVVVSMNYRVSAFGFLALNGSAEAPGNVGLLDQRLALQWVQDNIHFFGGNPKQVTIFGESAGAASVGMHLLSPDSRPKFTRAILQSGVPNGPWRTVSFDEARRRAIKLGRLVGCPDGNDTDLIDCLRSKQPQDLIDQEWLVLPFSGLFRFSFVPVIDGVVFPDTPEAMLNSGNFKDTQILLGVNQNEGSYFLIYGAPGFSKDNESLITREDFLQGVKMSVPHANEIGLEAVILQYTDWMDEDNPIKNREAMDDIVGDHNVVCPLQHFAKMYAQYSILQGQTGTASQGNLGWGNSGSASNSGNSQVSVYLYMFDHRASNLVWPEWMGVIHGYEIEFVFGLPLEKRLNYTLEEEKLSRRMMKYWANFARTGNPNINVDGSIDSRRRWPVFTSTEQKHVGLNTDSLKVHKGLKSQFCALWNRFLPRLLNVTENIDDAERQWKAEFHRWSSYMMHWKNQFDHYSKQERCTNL
BChE, sequence (P81908 whole entry): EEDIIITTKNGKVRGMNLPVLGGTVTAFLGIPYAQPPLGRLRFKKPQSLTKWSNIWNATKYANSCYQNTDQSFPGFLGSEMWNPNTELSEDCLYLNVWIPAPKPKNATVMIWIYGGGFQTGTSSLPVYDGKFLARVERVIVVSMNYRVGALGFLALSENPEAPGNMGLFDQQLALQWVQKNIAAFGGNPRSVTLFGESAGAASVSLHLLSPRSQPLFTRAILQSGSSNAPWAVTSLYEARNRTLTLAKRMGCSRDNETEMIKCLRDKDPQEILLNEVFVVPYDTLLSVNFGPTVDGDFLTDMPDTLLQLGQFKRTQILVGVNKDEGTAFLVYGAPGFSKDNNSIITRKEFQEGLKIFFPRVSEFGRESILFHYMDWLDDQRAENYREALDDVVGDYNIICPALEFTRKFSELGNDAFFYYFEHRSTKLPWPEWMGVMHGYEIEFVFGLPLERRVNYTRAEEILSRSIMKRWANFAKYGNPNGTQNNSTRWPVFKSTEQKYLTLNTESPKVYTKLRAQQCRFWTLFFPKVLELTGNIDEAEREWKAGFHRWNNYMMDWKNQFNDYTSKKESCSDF

| Structure (SMILES) | remaining activity at 10 µM (MAO-A) [%] | IC50 (MAO-A) [µM] | Inhibition pattern of MAO-B (MAO-B [1]) | Ki (MAO-B [1]) [nM] | Reversibility of MAO-B inhibition (MAO-B [2]) | Relative MAO-B activity, dialyzed (AD) (MAO-B [2]) [%] | Relative MAO-B activity, undialyzed (AU) (MAO-B [2]) [%] | IC50 at 48 h ([3]; Vero cells (kidney epithelial cells), 10–500 µg/mL, read-out: IC50 (Vero cell viability)) [µg/mL] | viability at 48 h, 100 µg/mL ([3]; 100 µg/mL, read-out: Cells alive (relative cell viability)) [%] | Morphological observation of Vero cells (Vero cells) | remaining activity at 10 µM (AChE) [%] | remaining activity at 10 µM (BChE) [%] | remaining activity at 10 µM (BACE-1) [%] | remaining activity at 10 µM (MAO-B [4]; 10 µM compound, recombinant MAO-B, benzylamine 0.3 mM, read-out: Residual Activity at 10 µM (%) MAO-B) [%] | SI (selectivity index for MAO-B as compared to MAO-A) (MAO-B [4]; IC50 MAO-A divided by IC50 MAO-B) | Times more MAO-B inhibition than meta-F analogue DM19 (MAO-B [4]; ortho-F (DM18) versus meta-F (DM19)) | IC50 (MAO-B [4]; recombinant MAO-B, benzylamine 0.3 mM, read-out: IC50 (µM) MAO-B) [µM] |
| --- | --- | --- | --- | --- | --- | --- | --- | --- | --- | --- | --- | --- | --- | --- | --- | --- | --- |
| COc1ccc(C(=O)/C=C/c2ccccc2Cl)c(OC)c1 [DM2] | 41.5 ± 1.59 | 6.29 ± 0.432 | competitive inhibitors | 32 ± 4 | reversible | 74.0 | 36.0 | 183 (≈ 605 µM) | 80 | cytotoxicity was evident in cell shrinkage and blebbing, and cellular density decreased | 71.9 ± 2.87 | 64.16 ± 0.44 | 100.5 ± 0.18 |  |  |  |  |
| COc1ccc(C(=O)/C=C/c2ccccc2F)cc1OC [DM18] | 100 ± 0.01 | > 40 | competitive inhibitors | 45 ± 1 | reversible | 76.6 | 40.1 |  |  |  | 78.5 ± 4.89 | 59.5 ± 4.08 | 99.94 ± 0.01 | 8.87 ± 1.08 | >338.98 | 3.75 | 0.118 ± 0.036 |

From article PMC9503132, “Development of Halogenated-Chalcones Bearing with Dimethoxy Phenyl Head as Monoamine Oxidase-B Inhibitors” (Pharmaceuticals, 2022)
